Read-outs that look alike come from different tables or passages of the source.

One data set deals with HIV-1. The data set can be described thus: Inhibition of acute HIV-1 infection of T-lymphoid cells (spread assay). In kind it is cell-based. The protocol:
Assay for Inhibition of HIV-1 Replication
Assays for the inhibition of acute HIV-1 infection of T-lymphoid cells were conducted in accordance with Vacca, J. P. et al, Proc. Natl. Acad. Sci. USA 1994, 91: 4096.

Data set [1] concerns virus containing Y143R mutation in the integrase gene. Particulars: k = IC50(mutant)/IC50(wild type). The protocol:
(§1) An assay for measuring the inhibition of acute HIV infection with HeLa P4-2 cells in a single cycle infectivity assay was conducted using methods described in Joyce et al., J. Biol. Chem. 2002, 277: 45811, Hazuda et al., Science 2000, 287: 646, and Kimpton et al, J. Virol. 1992, 66: 2232. Proviral plasmids encoding viruses containing specific mutations in the integrase gene (N155H, Q148R, Y143R, E92Q, or G140S/Q148H) were generated by site-directed mutagenesis, and viruses were produced by transfecting 293T cells with the appropriate proviral plasmids.

In data set [2] the test system is virus containing Q148R mutation in the integrase gene. Particulars: k = IC50(mutant)/IC50(wild type). How it is done: as §1
The subject of data set [3] is virus containing N155H mutation in the integrase gene. Particulars: k = IC50(mutant)/IC50(wild type). The protocol:
as §1

In data set [4] the test system is virus containing E92Q mutation in the integrase gene. Particulars: k = IC50(mutant)/IC50(wild type). How it is done:
as §1

In data set [5] the test system is virus containing G140S/Q148H mutation in the integrase gene. As to conditions: k = IC50(mutant)/IC50(wild type). How it is done:
as §1

Data set [6] addresses T1, recombinant integrase (HIV-1 integrase) (Human immunodeficiency virus type 1 group M subtype B, UniProt P04585).
T1 construct: Assays for the strand transfer activity of integrase were conducted in accordance with WO 02/30930 for recombinant integrase
The data set can be described thus: HIV-1 integrase assay: strand transfer catalyzed by recombinant integrase. The class given is biochemical. Particulars: strand transfer activity. How it is done:
HIV-1 Integrase Assay: Strand Transfer Catalyzed by Recombinant Integrase
Assays for the strand transfer activity of integrase were conducted in accordance with WO 02/30930 for recombinant integrase. […] For example, the compounds prepared in Examples 1 to 5 were tested in the integrase assay and found to have the IC50 values in Table B. (Compounds 6A and 6B were not tested in this assay.)
Further description on conducting the assay using preassembled complexes is found in Wolfe, A. L. et al., J. Virol. 1996, 70: 1424-1432, Hazuda et al., J. Virol. 1997, 71: 7005-7011; Hazuda et al., Drug Design and Discovery 1997, 15: 17-24; and Hazuda et al., Science 2000, 287: 646-650.

A further data set has as its system wild type IIIB. The experiment in a line: Single cycle infectivity assay in HeLa P4-2 cells, wild type virus. The class given is cell-based, HIV.
The mark [7] stands for this setting: Human immunodeficiency virus 1, IIIB, HeLaP4-2, HeLa P4-2 cells, single cycle infectivity, wild type IIIB, read-out: wild type IIIB IC50.
[8] abbreviates: HeLa P4-2 cells, single cycle infectivity, wild type IIIB, read-out: wild type IIIB IC50.

What is called IC50 is the concentration needed to halve the response being measured. As for `CC[C@H]1COC[C@@H](N(C)C(=O)C(=O)N(C)C)c2nc(C(=O)NCc3ccc(F)cc3)c(O)c(=O)n21` [Compound 5A, N-((6S,10S)-6-ethyl-2-{[(4-fluorobenzyl)amino]carbonyl}-3-hydroxy-4-oxo-6,7,9,10-tetrahydro-4-pyrimido[1,2-][1,4]oxazepin-10-yl)-N N′N′-trimethylethanediamide], in the data set on HIV-1, the “IC95 (nM) in the presence of 10% FBS” value stood at 12 nM. Besides, the “Number of fold shift in IC50 versus wild type IIIB, Y143R” value (from here on “Number of fold shift … Y143R”) in data set [1] was 1. In addition, the “Number of fold shift in IC50 versus wild type IIIB, Q148R” value (shortened to “Number of fold shift … Q148R”) in data set [2] was found to be 1. In addition, the “Number of fold shift in IC50 versus wild type IIIB, N155H” value (“Number of fold shift … N155H” below) in data set [3] is 1. In addition, the “Number of fold shift in IC50 versus wild type IIIB, E92Q” value (from here on “Number of fold shift … E92Q”) in data set [4] was found to be 2. In data set [5], the “Number of fold shift in IC50 versus wild type IIIB, G140S/Q148H” value (from here on “Number of fold shift … G140S/Q148H”) amounted to 4. Also, the IC50 in data set [6] (read-out: IC50) turned out to be 46 nM; in the data set with wild type IIIB (setting [7]) it was 28 nM.

Regarding `Cc1nnc(C(=O)NC(C)(C)c2nc(C(=O)NCc3ccc(F)cc3)c(O)c(=O)n2C)o1` [Compound X, raltegravir, reference compound], the “Number of fold shift … Y143R” value in data set [1] is listed as 15. In addition, the “Number of fold shift … Q148R” value in data set [2] came out at 22. Also, in data set [3], the “Number of fold shift … N155H” value was found to be 13. Besides, the “Number of fold shift … E92Q” value in data set [4] worked out at 3. For the same molecule, the “Number of fold shift … G140S/Q148H” value in data set [5] is recorded as 397. The IC50 with wild type IIIB (Human immunodeficiency virus 1, IIIB, HeLaP4-2, read-out: wild type IIIB IC50 (nM)) was 52 nM.

As to `CCN(C(=O)C(=O)N(C)C)[C@@H]1CC[C@H](OC)Cn2c1nc(C(=O)NCc1ccc(F)cc1)c(O)c2=O` [Compound 6A, N-ethyl-N-((7S,10R)-2-{[(4-fluorobenzyl)amino]carbonyl}-3-hydroxy-7-methoxy-4-oxo-4,6,7,8,9,10-hexahydropyrimido [1,2-a]azepin-10-yl)-N′,N′-dimethylethanediamide], in the data set on HIV-1, the “IC95 (nM) in the presence of 10% FBS” value was determined as 12 nM. The “Number of fold shift … Y143R” value in data set [1] was 3. Further, the “Number of fold shift … Q148R” value in data set [2] was determined as 1. Besides, the “Number of fold shift … N155H” value in data set [3] amounted to 2. The “Number of fold shift … E92Q” value in data set [4] worked out at 3. For the same molecule, the “Number of fold shift … G140S/Q148H” value in data set [5] amounted to 2. Further, the IC50 in the data set with wild type IIIB (setting [7]) is 16 nM.

Take `CN(C)C(=O)C(=O)N(C)C1CCCCn2c1nc(C(=O)NCc1ccc(F)cc1)c(O)c2=O` (single isomer, unassigned; (-)) [Compound Y, (−)N-(2-{[(4-fluorobenzyl)amino]carbonyl}-3-hydroxy-4-oxo-4,6,7,8,9,10-hexahydropyrimido[1,2-a]azepin-10-yl)-N,N′,N′-trimethylethanediamide, reference compound]: the “Number of fold shift … Y143R” value in data set [1] worked out at 1. Besides, the “Number of fold shift … Q148R” value in data set [2] was 26. Besides, the “Number of fold shift … N155H” value in data set [3] is reported as 15. Moreover, the “Number of fold shift … E92Q” value in data set [4] was found to be 4. For the same molecule, in data set [5], the “Number of fold shift … G140S/Q148H” value was 406. Also, the IC50 with wild type IIIB (setting [7]) amounted to 16 nM.

Consider `CC[C@H]1COC[C@H](N(C)C(=O)C(=O)N(C)C)c2nc(C(=O)NCc3ccc(F)cc3)c(O)c(=O)n21` [Compound 5B], for which the “IC95 (nM) in the presence of 10% FBS” value in the data set with HIV-1 was 10 nM. Also, the “Number of fold shift … Y143R” value in data set [1] is 2. The “Number of fold shift … Q148R” value in data set [2] was 1. Besides, the “Number of fold shift … N155H” value in data set [3] is given as 3. In addition, the “Number of fold shift … E92Q” value in data set [4] is 1. For the same molecule, in data set [5], the “Number of fold shift … G140S/Q148H” value was found to be 11. The IC50 turned out to be 40 nM in data set [6] (read-out: IC50) and 42 nM in the data set with wild type IIIB (setting [7]).

With `Cc1cc(CNC(=O)c2nc3n(c(=O)c2O)[C@@H](C)COC[C@H]3N(C)C(=O)C(=O)N(C)C)ccc1F` [Compound 4A, N-((6S,10S)-2-{[(4-fluoro-3-methylbenzyl)amino]carbonyl}-3-hydroxy-6-methyl-4-oxo-6,7,9,10-tetrahydro-4H-pyrimido[1,2-d][1,4]oxazepin-10-yl)-N,N′,N′-trimethylethanediamide], the “IC95 (nM) in the presence of 10% FBS” value with HIV-1 turned out to be 10 nM. Further, the “Number of fold shift … Y143R” value in data set [1] was determined as 2. Besides, in data set [2], the “Number of fold shift … Q148R” value worked out at 2. The “Number of fold shift … N155H” value in data set [3] was found to be 2. Moreover, the “Number of fold shift … E92Q” value in data set [4] turned out to be 1. The “Number of fold shift … G140S/Q148H” value in data set [5] stood at 12. Besides, the IC50 in data set [6] (read-out: IC50) came to 38 nM; in the data set with wild type IIIB (setting [7]) it was 19 nM.

Turning to `CC1(C)OCCn2c1nc(C(=O)NCc1ccc(F)cc1)c(O)c2=O` [Compound Z, N-[(4-fluorophenyl)methyl]-3-hydroxy-9,9-dimethyl-4-oxo-4,6,7,9-tetrahydro-6H-pyrimido[2,1-c][1,4]oxazine-2-carboxamide, reference compound], the “Number of fold shift … Y143R” value in data set [1] was found to be 1. Besides, the “Number of fold shift … Q148R” value in data set [2] is above 34. For the same molecule, the “Number of fold shift … N155H” value in data set [3] worked out at 32. The “Number of fold shift … E92Q” value in data set [4] was determined as 26. For the same molecule, the “Number of fold shift … G140S/Q148H” value in data set [5] is above 34. The IC50 in the data set on wild type IIIB (setting [8]) is 34 nM.

In the case of `COC1(C)CCC(N(C)C(=O)C(=O)N(C)C)c2nc(C(=O)NCc3ccc(F)c(C)c3)c(O)c(=O)n2C1` (single isomer, unassigned) [Compound 2D, N-(2-{[(4-fluoro-3-methylbenzyl)amino]carbonyl}-3-hydroxy-7-methoxy-7-methyl-4-oxo-4,6,7,8,9,10-hexahydropyrimido[1,2-a]azepin-10-yl)-N,N′,N′-trimethylethanediamide], the “IC95 (nM) in the presence of 10% FBS” value in the data set with HIV-1 amounted to 14 nM. In data set [1], the “Number of fold shift … Y143R” value is listed as 2. For the same molecule, the “Number of fold shift … Q148R” value in data set [2] is reported as 1. The “Number of fold shift … N155H” value in data set [3] worked out at 2. Further, in data set [5], the “Number of fold shift … G140S/Q148H” value is 4. For the same molecule, the IC50 in data set [6] (IC50 (nM)) was 46 nM; in the data set with wild type IIIB (setting [8]), 23 nM.

`COC1(C)CCC(N(C)C(=O)C(=O)N(C)C)c2nc(C(=O)NCc3ccc(F)c(C)c3)c(O)c(=O)n2C1` (single isomer, unassigned) [Compound 2C, N-(2-{[(4-fluoro-3-methylbenzyl)amino]carbonyl}-3-hydroxy-7-methoxy-7-methyl-4-oxo-4,6,7,8,9,10-hexahydropyrimido[1,2-a]azepin-10-yl)-N,N′,N′-trimethylethanediamide]: the “IC95 (nM) in the presence of 10% FBS” value in the data set with HIV-1 was 9 nM. Also, the “Number of fold shift … Y143R” value in data set [1] stood at 3. In addition, the “Number of fold shift … Q148R” value in data set [2] worked out at 22. In addition, in data set [3], the “Number of fold shift … N155H” value is listed as 19. The “Number of fold shift … G140S/Q148H” value in data set [5] was determined as 68. The IC50 in data set [6] (IC50 (nM)) was 73 nM; with wild type IIIB (setting [8]), 8 nM.

`CC[C@@H]1COC[C@H](N(C)C(=O)C(=O)N(C)C)c2nc(C(=O)NCc3ccc(F)cc3)c(O)c(=O)n21` [Compound 5C, N-((6R,10R)-6-ethyl-2-{[(4-fluorobenzyl)amino]carbonyl}-3-hydroxy-4-oxo-6,7,9,10-tetrahydro-4H-pyrimido[1,2-d][1,4]oxazepin-10-yl)-N N′N′-trimethylethanediamide]: the “IC95 (nM) in the presence of 10% FBS” value in the data set on HIV-1 is 14 nM. For the same molecule, the “Number of fold shift … Y143R” value in data set [1] is reported as 2. In addition, the “Number of fold shift … Q148R” value in data set [2] was found to be 7. In addition, the “Number of fold shift … N155H” value in data set [3] worked out at 7. Moreover, the “Number of fold shift … G140S/Q148H” value in data set [5] stood at 116. In addition, the IC50 worked out at 41 nM in data set [6] (read-out: IC50) and 21 nM in the data set with wild type IIIB (setting [7]).

With `Cc1cc(CNC(=O)c2nc3n(c(=O)c2O)[C@H](C)COC[C@@H]3N(C)C(=O)C(=O)N(C)C)ccc1F` [Compound 4C, N-((6R,10R)-2-{[(4-fluoro-3-methylbenzyl)amino]carbonyl}-3-hydroxy-6-methyl-4-oxo-6,7,9,10-tetrahydro-4H-pyrimido[1,2-d][1,4]oxazepin-10-yl)-N,N′,N′-trimethylethanediamide], the “IC95 (nM) in the presence of 10% FBS” value in the data set on HIV-1 came out at 10 nM. Further, the “Number of fold shift … Y143R” value in data set [1] was determined as 1. Also, the “Number of fold shift … Q148R” value in data set [2] is 3. Moreover, the “Number of fold shift … N155H” value in data set [3] came to 3. For the same molecule, in data set [5], the “Number of fold shift … G140S/Q148H” value was 11. Moreover, the IC50 in data set [6] (read-out: IC50) came out at 48 nM; with wild type IIIB (setting [7]), 26 nM.
